Results taken from patent publication US20230019491A1, “PYRIMIDINE TBK/IKKe INHIBITOR COMPOUNDS AND USES THEREOF” (Merck Patent GmbH, priority 2017, published 2023).
Counter-ions that a name gives are not always drawn.

How the values were obtained:
IKKε = biological target: T1, IKKε (Homo sapiens, UniProt Q14164); test: IKKε biochemical assay; settings: 10 point 1:4 dose response, 30 uM top concentration, 90 min at 25° C., LabChip EZ Reader II; read-out: IKKε_IC50
T1 sequence (Q14164 1-716): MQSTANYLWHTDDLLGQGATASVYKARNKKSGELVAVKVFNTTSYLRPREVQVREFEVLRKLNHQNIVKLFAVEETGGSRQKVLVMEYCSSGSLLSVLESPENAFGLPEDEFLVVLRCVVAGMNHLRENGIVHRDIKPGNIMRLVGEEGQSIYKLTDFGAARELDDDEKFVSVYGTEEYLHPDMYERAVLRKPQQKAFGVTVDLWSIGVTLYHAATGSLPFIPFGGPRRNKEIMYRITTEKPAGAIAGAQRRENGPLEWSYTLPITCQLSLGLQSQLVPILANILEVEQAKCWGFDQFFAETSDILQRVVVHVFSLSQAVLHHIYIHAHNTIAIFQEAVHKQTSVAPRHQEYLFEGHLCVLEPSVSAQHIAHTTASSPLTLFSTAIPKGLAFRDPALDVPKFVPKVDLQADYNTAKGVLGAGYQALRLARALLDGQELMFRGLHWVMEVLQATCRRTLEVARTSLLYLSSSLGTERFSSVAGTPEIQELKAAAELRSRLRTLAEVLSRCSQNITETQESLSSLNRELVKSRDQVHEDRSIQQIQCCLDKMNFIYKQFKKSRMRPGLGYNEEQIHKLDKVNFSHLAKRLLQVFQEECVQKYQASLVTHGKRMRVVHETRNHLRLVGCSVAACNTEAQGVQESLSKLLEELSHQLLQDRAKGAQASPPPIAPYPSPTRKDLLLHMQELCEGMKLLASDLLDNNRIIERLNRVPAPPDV
In short: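 Mobility-shift LabChip read-out followed a 90 min, 25° C. reaction of IKKε with substrate and test compound, with DMSO held at 1% final. Reactions were ended with stop buffer. Wells with 10 uM final staurosporine defined complete inhibition, and DMSO-only wells the uninhibited level.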

TBK1 = biological target: T2, TBK1 (Homo sapiens, UniProt Q9UHD2); test: TBK biochemical assay; settings: 10 point 1:4 dose response, 30 uM top concentration, 90 min at 25° C., LabChip EZ Reader II; read-out: TBK1_IC50
T2 sequence (Q9UHD2 1-729): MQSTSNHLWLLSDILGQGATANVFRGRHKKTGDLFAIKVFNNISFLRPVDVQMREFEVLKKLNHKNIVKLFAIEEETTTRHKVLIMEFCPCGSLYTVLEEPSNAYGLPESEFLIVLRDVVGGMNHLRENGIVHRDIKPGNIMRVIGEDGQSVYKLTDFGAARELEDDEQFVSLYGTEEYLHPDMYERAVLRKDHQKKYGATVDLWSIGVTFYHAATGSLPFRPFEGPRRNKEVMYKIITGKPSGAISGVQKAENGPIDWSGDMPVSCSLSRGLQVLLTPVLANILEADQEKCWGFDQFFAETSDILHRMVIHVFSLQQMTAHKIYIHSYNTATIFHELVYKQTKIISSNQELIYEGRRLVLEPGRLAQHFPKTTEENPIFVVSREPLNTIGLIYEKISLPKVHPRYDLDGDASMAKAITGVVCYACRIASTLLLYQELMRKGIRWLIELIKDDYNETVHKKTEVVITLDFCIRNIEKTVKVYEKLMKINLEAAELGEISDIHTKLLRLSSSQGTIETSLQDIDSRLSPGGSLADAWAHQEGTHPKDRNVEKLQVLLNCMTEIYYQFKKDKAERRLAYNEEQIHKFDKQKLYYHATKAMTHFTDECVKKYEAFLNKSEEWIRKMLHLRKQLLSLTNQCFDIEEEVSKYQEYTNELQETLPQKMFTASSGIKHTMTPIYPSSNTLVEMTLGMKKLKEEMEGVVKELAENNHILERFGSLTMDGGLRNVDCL
In short: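 Read-out was a Caliper LabChip mobility-shift assay, run after a 90-min, 25 °C reaction of TBK1 with substrate and compounds, quenched with stop buffer. Control wells received staurosporine at 10 uM final.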

Row | Structure (SMILES) | IC50 (IKKε) | IC50 (TBK1)
1 | COc1nc(Nc2nccc(-c3ccc(OC4CCNCC4(F)F)c(C#N)c3)n2)ccc1C1CCN(C)CC1 (stereo not drawn) [Example 144, 2-(3,3-Difluoro-piperidin-4-yloxy)-5-[2-(2-methoxy-1′-methyl-1′,2′,3′,4′,5′,6′-hexahydro-[3,4′]bipyridinyl-6-ylamino)-pyrimidin-4-yl]-benzonitrile] | < 100 nM | < 100 nM
2 | C[C@@H](O)C(=O)N1CCC(Oc2ccc(-c3ccnc(Nc4ccc(C5CCN(C)CC5)cc4)n3)cc2C#N)C(F)(F)C1 (stereo partly drawn) [Example 145, 2-([3,3-difluoro-1-[(2R)-2-hydroxypropanoyl]piperidin-4-yl]oxy)-5-(2-[[4-(1-methylpiperidin-4-yl)phenyl]amino]pyrimidin-4-yl)benzonitrile] | < 100 nM | < 100 nM
3 | COc1nc(Nc2nccc(-c3ccc(OC4CCN(C(=O)C(C)O)CC4(F)F)c(C#N)c3)n2)ccc1C1CCN(C)CC1 (stereo not drawn) [Example 146, 2-[[3,3-difluoro-1-(2-hydroxypropanoyl)piperidin-4-yl]oxy]-5-(2-[[6-methoxy-5-(1-methylpiperidin-4-yl)pyridin-2-yl]amino]pyrimidin-4-yl)benzonitrile] | < 100 nM | < 100 nM
4 | COc1nc(Nc2nccc(-c3ccc(OC4CCN(C(=O)[C@@H](C)O)CC4(F)F)c(C#N)c3)n2)ccc1C1CCN(C)CC1 (stereo partly drawn) [Example 147, 2-([3,3-difluoro-1-[(2R)-2-hydroxypropanoyl]piperidin-4-yl]oxy)-5-(2-[[6-methoxy-5-(1-methylpiperidin-4-yl)pyridin-2-yl]amino]pyrimidin-4-yl)benzonitrile] | < 100 nM | < 100 nM
5 | CN1CCC(c2ccc(Nc3nccc(-c4ccc(OC5CCN(C(=O)CO)CC5(F)F)c(C#N)c4)n3)cc2)CC1 (stereo not drawn) [Example 148, 2-[[3,3-difluoro-1-(2-hydroxyacetyl)piperidin-4-yl]oxy]-5-(2-[[4-(1-methylpiperidin-4-yl)phenyl]amino]pyrimidin-4-yl)benzonitrile] | < 100 nM | < 100 nM
6 | CC(O)C(=O)N1CCC(Oc2ccc(-c3ccnc(Nc4ccc(C5CCN(C)CC5)cc4)n3)cc2C#N)C(F)(F)C1 (stereo not drawn) [Example 149, 2-[[3,3-difluoro-1-(2-hydroxypropanoyl)piperidin-4-yl]oxy]-5-(2-[[4-(1-methylpiperidin-4-yl)phenyl]amino]pyrimidin-4-yl)benzonitrile] | < 100 nM | < 100 nM
7 | N#Cc1cc(-c2ccnc(Nc3ccc(C4CCN(C5COC5)CC4)cc3)n2)ccc1OC1CCNCC1(F)F (stereo not drawn) [Example 150, 2-(3,3-Difluoro-piperidin-4-yloxy)-5-{2-[4-(1-oxetan-3-yl-piperidin-4-yl)-phenylamino]-pyrimidin-4-yl}-benzonitrile hydrochloride] | < 100 nM | < 100 nM
8 | N#Cc1cc(-c2ccnc(Nc3ccc(C4CCN(C5COC5)CC4)cc3)n2)ccc1OC1CCOCC1 [Example 151, 5-{2-[4-(1-Oxetan-3-yl-piperidin-4-yl)-phenylamino]-pyrimidin-4-yl}-2-(tetrahydro-pyran-4-yloxy)-benzonitrile] | < 100 nM | < 100 nM
9 | COc1nc(Nc2nccc(-c3ccc(OC4CCN(C(=O)[C@H](C)O)CC4(F)F)c(C#N)c3)n2)ccc1C1CCN(C2COC2)CC1 (stereo partly drawn) [Example 152, 2-[3,3-Difluoro-1-((S)-2-hydroxy-propionyl)-piperidin-4-yloxy]-5-[2-(2-methoxy-1′-oxetan-3-yl-1′,2′,3′,4′,5′,6′-hexahydro-[3,4′]bipyridinyl-6-ylamino)-pyrimidin-4-yl]-benzonitrile] | < 100 nM | < 100 nM
10 | COc1nc(Nc2nccc(-c3ccc(OC4CCN(C(=O)[C@@H](O)CO)CC4(F)F)c(C#N)c3)n2)ccc1C1CCN(C2COC2)CC1 (stereo partly drawn) [Example 153, 2-[1-((S)-2,3-Dihydroxy-propionyl)-3,3-difluoro-piperidin-4-yloxy]-5-[2-(2-methoxy-1′-oxetan-3-yl-1′,2′,3′,4′,5′,6′-hexahydro-[3,4′]bipyridinyl-6-ylamino)-pyrimidin-4-yl]-benzonitrile] | < 100 nM | < 100 nM
11 | COc1nc(Nc2nccc(-c3ccc(OC4CCN(C(=O)CO)CC4(F)F)c(C#N)c3)n2)ccc1C1CCN(C2COC2)CC1 (stereo not drawn) [Example 154, 2-[3,3-Difluoro-1-(2-hydroxy-acetyl)-piperidin-4-yloxy]-5-[2-(2-methoxy-1′-oxetan-3-yl-1′,2′,3′,4′,5′,6′-hexahydro-[3,4′]bipyridinyl-6-ylamino)-pyrimidin-4-yl]-benzonitrile] | < 100 nM | < 100 nM
12 | N#Cc1cc(-c2ccnc(Nc3ccc(C4CCN(C5COC5)C4)cc3)n2)ccc1OC1CCNCC1(F)F (stereo not drawn) [Example 155, 2-(3,3-Difluoro-piperidin-4-yloxy)-5-{2-[4-(1-oxetan-3-yl-pyrrolidin-3-yl)-phenylamino]-pyrimidin-4-yl}-benzonitrile hydrochloride] | < 100 nM | < 100 nM

The remaining lines, values ahead:

Row | IC50 (IKKε) | IC50 (TBK1) | Structure (SMILES)
13 | < 100 nM | < 100 nM | N#Cc1cc(-c2ccnc(Nc3ccc(N4CCN(C5COC5)CC4)cc3)n2)ccc1OC1CCN(C(=O)CO)CC1(F)F (stereo not drawn) [Example 137, 2-[[3,3-difluoro-1-(2-hydroxyacetyl)piperidin-4-yl]oxy]-5-[2-([4-[4-(oxetan-3-yl)piperazin-1-yl]phenyl]amino)pyrimidin-4-yl]benzonitrile]
14 | < 100 nM | < 100 nM | C[C@H](O)C(=O)N1CCC(Oc2ccc(-c3ccnc(Nc4ccc(N5CCN(C6COC6)CC5)cc4)n3)cc2C#N)C(F)(F)C1 (stereo partly drawn) [Example 138, 2-([3,3-difluoro-1-[(2S)-2-hydroxypropanoyl]piperidin-4-yl]oxy)-5-[2-([4-[4-(oxetan-3-yl)piperazin-1-yl]phenyl]amino)pyrimidin-4-yl]benzonitrile]
15 | < 100 nM | < 100 nM | C[C@H](O)C(=O)N1CC[C@H](Oc2ccc(-c3ccnc(Nc4ccc(N5CCN(C6COC6)CC5)cc4)n3)cc2C#N)C(F)(F)C1 [Example 139, 2-[[(4S)-3,3-difluoro-1-[(2S)-2-hydroxypropanoyl]piperidin-4-yl]oxy]-5-[2-([4-[4-(oxetan-3-yl)piperazin-1-yl]phenyl]amino)pyrimidin-4-yl]benzonitrile]
16 | < 100 nM | < 100 nM | C[C@H](O)C(=O)N1CC[C@@H](Oc2ccc(-c3ccnc(Nc4ccc(N5CCN(C6COC6)CC5)cc4)n3)cc2C#N)C(F)(F)C1 [Example 140, 2-[[(4R)-3,3-difluoro-1-[(2S)-2-hydroxypropanoyl]piperidin-4-yl]oxy]-5-[2-([4-[4-(oxetan-3-yl)piperazin-1-yl]phenyl]amino)pyrimidin-4-yl]benzonitrile]
17 | < 100 nM | < 100 nM | C[C@@H](O)C(=O)N1CCC(Oc2ccc(-c3ccnc(Nc4ccc(N5CCN(C6COC6)CC5)cc4)n3)cc2C#N)C(F)(F)C1 (stereo partly drawn) [Example 141, 2-([3,3-difluoro-1-[(2R)-2-hydroxypropanoyl]piperidin-4-yl]oxy)-5-[2-([4-[4-(oxetan-3-yl)piperazin-1-yl]phenyl]amino)pyrimidin-4-yl]benzonitrile]
18 | < 100 nM | < 100 nM | C[C@@H](O)C(=O)N1CC[C@H](Oc2ccc(-c3ccnc(Nc4ccc(N5CCN(C6COC6)CC5)cc4)n3)cc2C#N)C(F)(F)C1 [Example 142, 2-[[(4S)-3,3-difluoro-1-[(2R)-2-hydroxypropanoyl]piperidin-4-yl]oxy]-5-[2-([4-[4-(oxetan-3-yl)piperazin-1-yl]phenyl]amino)pyrimidin-4-yl]benzonitrile]
